Earlier results on 32 compounds are cited in article PMC11938273 (Journal of Chemical Information and Modeling, 2025).

Structures are written as SMILES. Counter-ions that a name gives are not always drawn.

The conditions of this data set: in vivo; cited from earlier work.
Regarding `C[C@@](Cc1ccc(O)c(O)c1)(NN)C(=O)O` [Carbidopa, (2S)-3-(3,4-Dihydroxyphenyl)-2-hydrazino-2-methylpropanoic acid], the CNS status result was “Negative”.
For the compound `CCC1=C(C)CN(C(=O)NCCc2ccc(S(=O)(=O)NC(=O)N[C@H]3CC[C@H](C)CC3)cc2)C1=O` [Glimepiride, 3-Ethyl-4-methyl-N-[2-(4-{[(trans-4-methylcyclohexyl)carbamoyl]sulfamoyl}phenyl)ethyl]-2-oxo-2,5-dihydro-1H-pyrrole-1-carboxamide], the CNS status entry was “Negative”.
Consider `CC[C@]1(O)C[C@H]2CN(CCc3c([nH]c4ccccc34)[C@@](C(=O)OC)(c3cc4c(cc3OC)N(C=O)[C@H]3[C@@](O)(C(=O)OC)[C@H](OC(C)=O)[C@]5(CC)C=CCN6CC[C@]43[C@@H]65)C2)C1` [Vincristine, (3aR,3a1R,4R,5S,5aR,10bR)-Methyl 4-acetoxy-3a-ethyl-9-((5S,7S,9S)-5-ethyl-5-hydroxy-9-(methoxycarbonyl)-2,4,5,6,7,8,9,10-octahydro-1 H-3,7-methano[1]azacycloundecino[5,4-b]indol-9-yl)-6-formyl-5-hydroxy-8-methoxy3a,3a1,4,5,5a,6,11,12-octahydro-1 H-indolizino[8,1-cd]carbazole-5-carboxylate], for which the CNS status entry is given as “Efflux transporter substrate”.
Take `COC(=O)[C@H](c1ccccc1)[C@H]1CCCCN1` (racemic) [Ritalin, rac-methyl (R)-2-phenyl-2-((R)-piperidin-2-yl)acetate]: the CNS status result is “Positive”.
As to `COc1ccc(C2CNC(=O)C2)cc1OC1CCCC1` (centres unmarked) [Rolipram, 4-(3-(Cyclopentyloxy)-4-methoxyphenyl)pyrrolidin-2-one], the CNS status result was “Positive”.
Turning to `CCC(=O)OC1CCNCC1` [PMP, piperidin-4-yl propionate], the CNS status result was “Positive”.
In the case of `CN1CCc2cc(Cl)c(O)cc2[C@@H](c2ccccc2)C1` [SCH-23390 hydrochloride, (R)-8-chloro-3-methyl-5-phenyl-2,3,4,5-tetrahydro1H-benzo[d]azepin-7-ol], the CNS status result was “Positive”.
Regarding `COC(=O)[C@H]1[C@@H](c2ccc(F)cc2)C[C@@H]2CC[C@H]1N2C/C=C/I` [beta-CFT, (1R,2S,3S,5S)-methyl-3-(4-fluorophenyl)-8-((E)-3-iodoallyl)-8-azabicyclo[3.2.1]octane-2-carboxylate], the CNS status entry is on record as “Positive”.
As to `CCC(=O)NS(=O)(=O)c1ccc(-c2c(-c3ccccc3)noc2C)cc1` [Parecoxib, N-{[4-(5-Methyl-3-phenyl-1,2-oxazol4-yl)phenyl]sulfonyl}propanamide], the CNS status result is listed as “Negative”.
For the compound `CN(C)C(=O)Oc1cccc([N+](C)(C)C)c1` [Neostigmine, 3-[(Dimethylcarbamoyl)oxy]-N,N,N-trimethylanilinium], the CNS status entry is on record as “Negative”.
Consider `COCC1=C(C(=O)OC)[C@H](c2ccc(F)c(F)c2)N(C(=O)NCCCN2CCC(c3cccc(NC(C)=O)c3)CC2)C(=O)N1` [SNAP7941, methyl 3-((3-(4-(3-acetamidophenyl)piperidin-1-yl)propyl)carbamoyl)-4-(3,4-difluorophenyl)-6-(methoxymethyl)-2-oxo-1,2,3,4-tetrahydropyrimidine-5-carboxylate], for which the CNS status result is listed as “Efflux transporter substrate”.
In the case of `CNc1ccc(-c2nc3ccc(O)cc3s2)cc1F` [Flutemetamol, 2-(3-fluoro-4-(methylamino)phenyl)benzo[d]thiazol-6-ol], the CNS status entry is “Positive”.
Turning to `Cc1nc2n(c(=O)c1CCN1CCC(C(=O)c3ccc(F)cc3)CC1)CCS2` [Setoperone, 6-(2-(4-(4-Fluorobenzoyl)piperidin-1-yl)ethyl)-7-methyl-2H-thiazolo[3,2-a]pyrimidin-5(3H)-one], the CNS status result is reported as “Positive”.
Regarding `CC(C)NCC(O)COc1cccc2[nH]c3ccccc3c12` (centres unmarked) [Carazolol, 1-((9H-carbazol-4-yl)oxy)-3-(isopropylamino)propan-2-ol], the CNS status result is recorded as “Positive”.
As for `COC(=O)[C@H]1[C@@H](c2ccc(I)cc2)C[C@@H]2CC[C@H]1N2CCF` [CIT-FE, (1R,2S,3S,5S)-methyl 8-(2-fluoroethyl)-3-(4-iodophenyl)-8-azabicyclo[3.2.1]octane-2-carboxylate], the CNS status result is reported as “Positive”.
With `COc1cc2c(cc1OC)CN(CCc1ccc(NC(=O)c3cc(OC)c(OC)cc3NC(=O)c3cnc4ccccc4c3)cc1)CC2` [Tariquidar, N-[2-({4-[2-(6,7-Dimethoxy-3,4-dihydro-2(1H)-isoquinolinyl)ethyl]phenyl}carbamoyl)-4,5-dimethoxyphenyl]-3-quinolinecarboxamide], the CNS status entry was “Efflux transporter substrate”.
On to `C#Cc1cccc(Nc2ncnc3cc(OCCOC)c(OCCOC)cc23)c1` [Erlotinib, N-(3-Ethynylphenyl)-6,7-bis(2-methoxyethoxy)-4-quinazolinamine], for which the CNS status entry is on record as “Efflux transporter substrate”.
For `C[C@]12CC[C@@H]3c4ccc(O)cc4C[C@@H](CCCCCCCCC[S+]([O-])CCCC(F)(F)C(F)(F)F)[C@H]3[C@@H]1CC[C@@H]2O` (stereo partly drawn) [Fulvestrant, (7α,17β)-7-{9-[(4,4,5,5,5-Pentafluoropentyl)sulfinyl]nonyl}estra-1(10),2,4-triene-3,17-diol], the CNS status entry is “Negative”.
Regarding `Cc1nccn1CC1CCc2c(c3ccccc3n2C)C1=O` (centres unmarked) [Ondansetron, 9-Methyl-3-[(2-methyl-1H-imidazol-1-yl)methyl]-1,2,3,9-tetrahydro-4H-carbazol-4-one], the CNS status result is given as “Efflux transporter substrate”.
For `O=[N+]([O-])c1nccn1CC(O)CF` (centres unmarked) [Fluoromisonidazole (FMISO), 1-Fluoro-3-(2-nitro-1H-imidazol-1-yl)propan-2-ol], the CNS status entry is on record as “Positive”.
In the case of `COC(=O)[C@H]1[C@@H](c2ccc(I)cc2)C[C@@H]2CC[C@H]1N2CCCF` (racemic) [beta-CIT-FP, rac-methyl(1R,2S,3S,5S)-8-(3-fluoropropyl)-3-(4-iodophenyl)-8-azabicyclo[3.2.1]octane-2-carboxylate], the CNS status entry is “Positive”.
Take `COc1cccc2c1C(=O)c1c(O)c3c(c(O)c1C2=O)C[C@@](O)(C(C)=O)C[C@@H]3O[C@H]1C[C@H](N)[C@H](O)[C@H](C)O1` [Daunorubicin, (1S,3S)-3-Acetyl-3,5,12-trihydroxy-10-methoxy-6,11-dioxo-1,2,3,4,6,11-hexahydro-1-tetracenyl 3-amino-2,3,6-trideoxy-α-L-lyxo-hexopyranoside]: the CNS status entry is recorded as “Efflux transporter substrate”.
As for `CCOc1ccc(-c2nc3cc(-c4nc5cc(N6CCN(C)CC6)ccc5[nH]4)ccc3[nH]2)cc1` [Hoechst 33342, 2′-(4-Ethoxyphenyl)-5-(4-methyl-1-piperazinyl)-1H,1′H-2,5′-bibenzimidazole], the CNS status result is on record as “Efflux transporter substrate”.
Regarding `CCN1CCC[C@H]1CNC(=O)c1cc(I)cc(OC)c1OC` [Epidepride, (S)-N-((1-ethylpyrrolidin-2-yl)methyl)-5-iodo-2,3-dimethoxybenzamide], the CNS status result is on record as “Positive”.
Consider `CCOC(=O)c1cncn1[C@H](C)c1ccccc1` [Etomidate, (R)-ethyl 1-(1-phenylethyl)-1H-imidazole-5-carboxylate], for which the CNS status entry was “Positive”.
With `CN/C(=C\[N+](=O)[O-])NCCSCc1ccc(CN(C)C)o1` [Ranitidine, (E)-N-{2-[({5-[(Dimethylamino)methyl]-2-furyl}methyl)sulfanyl]ethyl}-N′-methyl-2-nitro-1,1-ethenediamine], the CNS status entry is on record as “Efflux transporter substrate”.
As to `COc1cccc2c1C(=O)c1c(O)c3c(c(O)c1C2=O)C[C@@](O)(C(=O)CO)C[C@@H]3O[C@H]1C[C@H](N)[C@H](O)[C@H](C)O1` [Doxorubicin, (1S,3S)-3-Glycoloyl-3,5,12-trihydroxy-10-methoxy-6,11-dioxo-1,2,3,4,6,11-hexahydro-1-tetracenyl 3-amino-2,3,6-trideoxy-α-L-lyxo-hexopyranoside], the CNS status entry was “Efflux transporter substrate”.
Turning to `CNc1ccc(-c2nc3ccc(O)cc3s2)cc1` [6-OH-BTA-1 (PiB), 2-(4-(Methylamino)phenyl)benzo[d]thiazol-6-ol], the CNS status entry is on record as “Positive”.
As for `COc1cc([C@@H]2c3cc4c(cc3[C@@H](O[C@@H]3O[C@@H]5CO[C@@H](C)O[C@H]5[C@H](O)[C@H]3O)[C@H]3COC(=O)[C@H]23)OCO4)cc(OC)c1O` [Etoposide, (5S,5aR,8aR,9R)-9-(4-Hydroxy-3,5-dimethoxyphenyl)-8-oxo-5,5a,6,8,8a,9-hexahydrofuro[3′,4′:6,7]naphtho[2,3-d][1,3]dioxol-5-yl 4,6-O-[(1R)-ethylidene]-β-D-glucopyranoside], the CNS status result is “Efflux transporter substrate”.
Turning to `CCOC(=O)c1ncn2c1CN(C)C(=O)c1cc(N=[N+]=[N-])ccc1-2` [Azidomazenil, Ethyl-8-azido-5-methyl-6-oxo-4H-imidazo[1,5-a][1,4]benzodiazepine-3-carboxylate], the CNS status result is “Positive”.
`CCCC(=O)OC1CCN(C)CC1` [BMP, 1-methylpiperidin-4-yl butyrate]: the CNS status entry is reported as “Positive”.
Consider `CC(C)c1nc(CN(C)C(=O)N[C@H](C(=O)N[C@@H](Cc2ccccc2)C[C@H](O)[C@H](Cc2ccccc2)NC(=O)OCc2cncs2)C(C)C)cs1` [Ritonavir, (1E,2S)-N-[(2S,4S,5S)-4-Hydroxy-5-{(E)-[hydroxy(1,3-thiazol-5-ylmethoxy)methylene]amino}-1,6-diphenyl-2-hexanyl]-2-[(E)-(hydroxy{[(2-isopropyl-1,3-thiazol-4-yl)methyl](methyl)amino}methylene)amino]-3-methylbutanimidic acid], for which the CNS status result is recorded as “Efflux transporter substrate”.
